According to US20240376094A2, “SELECTIVE BCL-XL PROTAC COMPOUNDS AND METHODS OF USE” (Les Laboratoires Servier, priority 2021, published 2024):

Experiments:
Type in all cases: cell-based
[1] = tested on: EBC-1 lung cancer cell line; experiment: EBC-1 cell proliferation, CellTiter-Glo assay; conditions: Homo sapiens, 120 h; Ebc-1 cell viability, CTG assay, 5 days of treatment; read-out: CTG 5 day Ebc1 GI50
In short: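 CellTiter-Glo read-out after 5-day compound treatment, normalised to untreated cells, with GI50 derived by four-parameter logistic regression. Ten concentrations spanning 0.508 nM–10 μM were added to 1000 EBC-1 cells per well the day after seeding. Assays required at least one cell doubling versus Day 0.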

Bcl-xL = biological target: T1, Bcl-xL (Homo sapiens, UniProt Q07817); experiment: HCT116 Bcl-xL degradation, capillary-based immunoassay (WES); conditions: HCT116, 24 h, 9-point serial dilution
T1 construct: Measured levels of Bcl-xL protein of HCT116 cells treated with the tested compounds; host or cells: HCT116
In short: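 Bcl-xL protein level by capillary WES immunoassay in HCT116 lysates, as % of untreated after cofilin normalization. Compound exposure was 24 h at 10 and 100 nM and/or a 9-point series, in quadruplicate. Four-parameter fitting gave the DC50.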

HiBiT-tagged BCL-xL = biological target: T2, HiBiT-tagged BCL-xL (Homo sapiens, UniProt Q07817); experiment: NCI-H1650 BCL-xL protein levels, Nano-Glo HiBiT Lytic Detection; conditions: NCI-H1650 expressing HiBiT-tagged BCL-xL, overnight incubation, read-out: Bcl-xl HIBIT NCIH1650 DC50
T2 construct: expressed in transfected cells; host or cells: NCI-H1650 (ATCC No. CRL-5883), engineered HiBiT cell line
In short: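 HiBiT luminescence after cell lysis with LgBiT/furimazine reagent reported BCL-xL levels, expressed relative to untreated wells and fitted with a four-parameter logistic equation. Engineered NCI-H1650 cells were exposed overnight at 37° C to compound at final 0.508 nM-10 μM (10 points, triplicate plates).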

MOLT-4 cells = experiment: MOLT-4 cell viability, CTG assay; conditions: Homo sapiens, MOLT-4, 48 h
In short: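 Viability read as total ATP luminescence (CTG) after 48 h compound treatment, 11 points at 5-fold spacing in triplicate, cells in RPMI 1640/10% FBS. IC50 is the concentration halving signal relative to control, four-parameter fit, averaged over at least 2 experiments.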

T2 sequence (Q07817 whole entry): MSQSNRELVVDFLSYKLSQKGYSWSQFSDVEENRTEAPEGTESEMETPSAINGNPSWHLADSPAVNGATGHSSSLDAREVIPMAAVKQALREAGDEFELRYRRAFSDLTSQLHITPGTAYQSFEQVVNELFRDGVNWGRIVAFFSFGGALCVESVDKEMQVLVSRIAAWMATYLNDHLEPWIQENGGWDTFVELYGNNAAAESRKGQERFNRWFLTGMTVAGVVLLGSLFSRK
T1 sequence (Q07817 whole entry): as above

Row | GI50 [1] | DC50 (Bcl-xL) | DC50 (HiBiT-tagged BCL-xL) | IC50 (MOLT-4 cells) | SMILES
1 | 216 nM | > 316 nM | > 1670 nM | 34.7 nM | Cc1ncsc1-c1ccc([C@H](C)NC(=O)C2C[C@@H](O)CN2C(=O)C(NC(=O)COCCOCCOCCOCCN(C)CCOC23CC4(C)CC(C)(CC(Cn5ncc(-c6ccc(N7CCCc8c7nnc(Nc7nc9ccccc9s7)c8C)nc6C(=O)O)c5C)(C4)C2)C3)C(C)(C)C)cc1 (stereo in doubt) [Example 87, 6-[3-(1,3-benzothiazol-2-ylamino)-4-methyl-6,7-dihydro-5H-pyrido[2,3-c]pyridazin-8-yl]-3-[1-[[3-[2-[2-[2-[2-[2-[2-[[(1S)-1-[(2S,4R)-4-hydroxy-2-[[(1S)-1-[4-(4-methylthiazol-5-yl)phenyl]ethyl]carbamoyl]pyrrolidine-1-carbonyl]-2,2-dimethyl-propyl]amino]-2-oxo-ethoxy]ethoxy]ethoxy]ethoxy]ethyl-methyl-amino]ethoxy]-5,7-dimethyl-1-adamantyl]methyl]-5-methyl-pyrazol-4-yl]pyridine-2-carboxylic acid]
2 | 179 nM | 13.3 nM | > 1670 nM | 16.7 nM | Cc1ncsc1-c1ccc(CNC(=O)[C@@H]2C[C@@H](O)CN2C(=O)[C@@H](NC(=O)C2(F)CC2)C(C)(C)C)c(OCCCCCCCCCN(C)CCOC23CC4(C)CC(C)(CC(Cn5ncc(-c6ccc(N7CCCc8c7nnc(Nc7nc9ccccc9s7)c8C)nc6C(=O)O)c5C)(C4)C2)C3)c1 [Example 72, 6-[3-(1,3-benzothiazol-2-ylamino)-4-methyl-6,7-dihydro-5H-pyrido[2,3-c]pyridazin-8-yl]-3-[1-[[3-[2-[9-[2-[[[(2S,4R)-1-[(2S)-2-[(1-fluorocyclopropanecarbonyl)amino]-3,3-dimethyl-butanoyl]-4-hydroxy-pyrrolidine-2-carbonyl]amino]methyl]-5-(4-methylthiazol-5-yl)phenoxy]nonyl-methyl-amino]ethoxy]-5,7-dimethyl-1-adamantyl]methyl]-5-methyl-pyrazol-4-yl]pyridine-2-carboxylic acid]
3 | 186 nM | 7.69 nM | 13 nM | 24 nM | Cc1ncsc1-c1ccc(CNC(=O)[C@@H]2C[C@@H](O)CN2C(=O)[C@@H](NC(=O)C2(F)CC2)C(C)(C)C)c(OCCCCCCCCCCN(C)CCOC23CC4(C)CC(C)(CC(Cn5ncc(-c6ccc(N7CCCc8c7nnc(Nc7nc9ccccc9s7)c8C)nc6C(=O)O)c5C)(C4)C2)C3)c1 [Example 73, 6-[3-(1,3-benzothiazol-2-ylamino)-4-methyl-6,7-dihydro-5H-pyrido[2,3-c]pyridazin-8-yl]-3-[1-[[3-[2-[10-[2-[[[(2S,4R)-1-[(2S)-2-[(1-fluorocyclopropanecarbonyl)amino]-3,3-dimethyl-butanoyl]-4-hydroxy-pyrrolidine-2-carbonyl]amino]methyl]-5-(4-methylthiazol-5-yl)phenoxy]decyl-methyl-amino]ethoxy]-5,7-dimethyl-1-adamantyl]methyl]-5-methyl-pyrazol-4-yl]pyridine-2-carboxylic acid]
4 | 134 nM | 0.28 nM | 3 nM | 8.34 nM | Cc1ncsc1-c1ccc(CNC(=O)[C@@H]2C[C@@H](O)CN2C(=O)[C@@H](NC(=O)C2(F)CC2)C(C)(C)C)c(OCCCCCCCCCCCN(C)CCOC23CC4(C)CC(C)(CC(Cn5ncc(-c6ccc(N7CCCc8c7nnc(Nc7nc9ccccc9s7)c8C)nc6C(=O)O)c5C)(C4)C2)C3)c1 [Example 76, 6-[3-(1,3-benzothiazol-2-ylamino)-4-methyl-6,7-dihydro-5H-pyrido[2,3-c]pyridazin-8-yl]-3-[1-[[3-[2-[11-[2-[[[(2S,4R)-1-[(2S)-2-[(1-fluorocyclopropanecarbonyl)amino]-3,3-dimethyl-butanoyl]-4-hydroxy-pyrrolidine-2-carbonyl]amino]methyl]-5-(4-methylthiazol-5-yl)phenoxy]undecyl-methyl-amino]ethoxy]-5,7-dimethyl-1-adamantyl]methyl]-5-methyl-pyrazol-4-yl]pyridine-2-carboxylic acid]
5 | 167 nM | > 316 nM | > 1670 nM | 4.54 nM | Cc1ncsc1-c1ccc(CNC(=O)[C@@H]2C[C@@H](O)CN2C(=O)[C@@H](NC(=O)C2(F)CC2)C(C)(C)C)c(OCCCCCCCCCCCCCCCCN(C)CCOC23CC4(C)CC(C)(CC(Cn5ncc(-c6ccc(N7CCCc8c7nnc(Nc7nc9ccccc9s7)c8C)nc6C(=O)O)c5C)(C4)C2)C3)c1 [Example 77, 6-[3-(1,3-benzothiazol-2-ylamino)-4-methyl-6,7-dihydro-5H-pyrido[2,3-c]pyridazin-8-yl]-3-[1-[[3-[2-[16-[2-[[[(2S,4R)-1-[(2S)-2-[(1-fluorocyclopropanecarbonyl)amino]-3,3-dimethyl-butanoyl]-4-hydroxy-pyrrolidine-2-carbonyl]amino]methyl]-5-(4-methylthiazol-5-yl)phenoxy]hexadecyl-methyl-amino]ethoxy]-5,7-dimethyl-1-adamantyl]methyl]-5-methyl-pyrazol-4-yl]pyridine-2-carboxylic acid]
6 | 66 nM | 0.399 nM | > 1670 nM | 6.06 nM | Cc1ncsc1-c1ccc(CNC(=O)[C@@H]2C[C@@H](O)CN2C(=O)[C@@H](NC(=O)C2(F)CC2)C(C)(C)SCCCCCCCCCCCCN(C)CCOC23CC4(C)CC(C)(CC(Cn5ncc(-c6ccc(N7CCCc8c7nnc(Nc7nc9ccccc9s7)c8C)nc6C(=O)O)c5C)(C4)C2)C3)cc1 [Example 79, 6-[3-(1,3-benzothiazol-2-ylamino)-4-methyl-6,7-dihydro-5H-pyrido[2,3-c]pyridazin-8-yl]-3-[1-[[3-[2-[12-[(2R)-2-[(1-fluorocyclopropanecarbonyl)amino]-3-[(2S,4R)-4-hydroxy-2-[[4-(4-methylthiazol-5-yl)phenyl]methylcarbamoyl]pyrrolidin-1-yl]-1,1-dimethyl-3-oxo-propyl]sulfanyldodecyl-methyl-amino]ethoxy]-5,7-dimethyl-1-adamantyl]methyl]-5-methyl-pyrazol-4-yl]pyridine-2-carboxylic acid]
7 | 92 nM | 3.57 nM | > 1670 nM | 6.11 nM | Cc1ncsc1-c1ccc(CNC(=O)[C@@H]2C[C@@H](O)CN2C(=O)[C@@H](NC(=O)C2(F)CC2)C(C)(C)SCCCCCCCCCCCCCCN(C)CCOC23CC4(C)CC(C)(CC(Cn5ncc(-c6ccc(N7CCCc8c7nnc(Nc7nc9ccccc9s7)c8C)nc6C(=O)O)c5C)(C4)C2)C3)cc1 [Example 80, 6-[3-(1,3-benzothiazol-2-ylamino)-4-methyl-6,7-dihydro-5H-pyrido[2,3-c]pyridazin-8-yl]-3-[1-[[3-[2-[14-[(2R)-2-[(1-fluorocyclopropanecarbonyl)amino]-3-[(2S,4R)-4-hydroxy-2-[[4-(4-methylthiazol-5-yl)phenyl]methylcarbamoyl]pyrrolidin-1-yl]-1,1-dimethyl-3-oxo-propyl]sulfanyltetradecyl-methyl-amino]ethoxy]-5,7-dimethyl-1-adamantyl]methyl]-5-methyl-pyrazol-4-yl]pyridine-2-carboxylic acid]
